# Source: PubChem BioAssay (NCI)
#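 In this assay, cells in 96-well plates receive the compound at five concentrations for 48 hours. Endpoints are linearly interpolated between the surrounding concentrations. Here, GI50 denotes the concentration required for 50% inhibition of growth. The concentration for full growth arrest is given as TGI.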
# Assays:
# Assay in all cases: NCI-60 cell line screen, 48 h
# 786-0 renal = system: 786-0 renal
# A498 renal = system: A498 renal
# A549 NSCLC = system: A549 NSCLC
# BT-549 breast = system: BT-549 breast
# CAKI-1 renal = system: CAKI-1 renal
# CCRF-CEM leukemia = system: CCRF-CEM leukemia
# COLO 205 colon = system: COLO 205 colon
# DU-145 prostate = system: DU-145 prostate
# EKVX NSCLC = system: EKVX NSCLC
# HCC-2998 colon = system: HCC-2998 colon
# HCT-116 colon = system: HCT-116 colon
# HCT-15 colon = system: HCT-15 colon
# HL-60(TB) leukemia = system: HL-60(TB) leukemia
# HOP-62 NSCLC = system: HOP-62 NSCLC
# HS 578T breast = system: HS 578T breast
# HT29 colon = system: HT29 colon
# IGROV1 ovarian = system: IGROV1 ovarian
# K-562 leukemia = system: K-562 leukemia
# KM12 colon = system: KM12 colon
# LOX IMVI melanoma = system: LOX IMVI melanoma
# M14 melanoma = system: M14 melanoma
# MALME-3M melanoma = system: MALME-3M melanoma
# MCF7 breast = system: MCF7 breast
# MDA-MB-231 breast = system: MDA-MB-231 breast
# MDA-MB-435 = system: MDA-MB-435
# MDA-MB-468 breast = system: MDA-MB-468 breast
# MOLT-4 leukemia = system: MOLT-4 leukemia
# NCI-H23 lung = system: NCI-H23 lung
# NCI-H460 lung = system: NCI-H460 lung
# NCI-H522 lung = system: NCI-H522 lung
# OVCAR-3 ovarian = system: OVCAR-3 ovarian
# OVCAR-4 ovarian = system: OVCAR-4 ovarian
# OVCAR-5 ovarian = system: OVCAR-5 ovarian
# OVCAR-8 ovarian = system: OVCAR-8 ovarian
# PC-3 prostate = system: PC-3 prostate
# RPMI-8226 leukemia = system: RPMI-8226 leukemia
# RXF 393 renal = system: RXF 393 renal
# SF-268 CNS = system: SF-268 CNS
# SF-295 CNS = system: SF-295 CNS
# SF-539 CNS = system: SF-539 CNS
# SK-MEL-2 melanoma = system: SK-MEL-2 melanoma
# SK-MEL-28 melanoma = system: SK-MEL-28 melanoma
# SK-MEL-5 melanoma = system: SK-MEL-5 melanoma
# SK-OV-3 ovarian = system: SK-OV-3 ovarian
# SN12C renal = system: SN12C renal
# SNB-19 CNS = system: SNB-19 CNS
# SNB-75 CNS = system: SNB-75 CNS
# SR leukemia = system: SR leukemia
# SW-620 colon = system: SW-620 colon
# T-47D breast = system: T-47D breast
# TK-10 renal = system: TK-10 renal
# U251 CNS = system: U251 CNS
# UACC-257 melanoma = system: UACC-257 melanoma
# UO-31 renal = system: UO-31 renal
smiles,measurement,setting,value
COC[C@@H](CC(C)C)N=C1N/C(=C\c2ccc3ncsc3c2)C(=O)N1C,GI50,786-0 renal,3.48 µM
same,TGI,786-0 renal,> 100 µM
same,GI50,A498 renal,1.2 µM
same,TGI,A498 renal,4.97 µM
same,GI50,A549 NSCLC,2.05 µM
same,TGI,A549 NSCLC,> 100 µM
same,GI50,BT-549 breast,2.01 µM
same,TGI,BT-549 breast,9.51 µM
same,GI50,CAKI-1 renal,1.73 µM
same,TGI,CAKI-1 renal,> 100 µM
same,GI50,CCRF-CEM leukemia,2.55 µM
same,TGI,CCRF-CEM leukemia,18.6 µM
same,GI50,COLO 205 colon,1.97 µM
same,TGI,COLO 205 colon,7.26 µM
same,GI50,DU-145 prostate,3.22 µM
same,TGI,DU-145 prostate,> 100 µM
same,GI50,EKVX NSCLC,3.06 µM
same,TGI,EKVX NSCLC,> 100 µM
same,GI50,HCC-2998 colon,2.67 µM
same,TGI,HCC-2998 colon,18.6 µM
same,GI50,HCT-116 colon,1.22 µM
same,TGI,HCT-116 colon,> 100 µM
same,GI50,HCT-15 colon,2.01 µM
same,TGI,HCT-15 colon,> 100 µM
same,GI50,HL-60(TB) leukemia,2.55 µM
same,TGI,HL-60(TB) leukemia,8.29 µM
same,GI50,HOP-62 NSCLC,2.23 µM
same,TGI,HOP-62 NSCLC,8.86 µM
same,GI50,HS 578T breast,2.03 µM
same,TGI,HS 578T breast,9.14 µM
same,GI50,HT29 colon,3.27 µM
same,TGI,HT29 colon,16.2 µM
same,GI50,IGROV1 ovarian,2.26 µM
same,TGI,IGROV1 ovarian,> 100 µM
same,GI50,K-562 leukemia,1.76 µM
same,TGI,K-562 leukemia,> 100 µM
same,GI50,KM12 colon,2.36 µM
same,TGI,KM12 colon,> 100 µM
same,GI50,LOX IMVI melanoma,2.34 µM
same,TGI,LOX IMVI melanoma,> 100 µM
same,GI50,M14 melanoma,4.11 µM
same,TGI,M14 melanoma,> 100 µM
same,GI50,MALME-3M melanoma,2.36 µM
same,TGI,MALME-3M melanoma,8.53 µM
same,GI50,MCF7 breast,2.57 µM
same,TGI,MCF7 breast,22.2 µM
same,GI50,MDA-MB-231 breast,3.9 µM
same,TGI,MDA-MB-231 breast,> 100 µM
same,GI50,MDA-MB-435,3.72 µM
same,TGI,MDA-MB-435,> 100 µM
same,GI50,MDA-MB-468 breast,0.999 µM
same,TGI,MDA-MB-468 breast,6.09 µM
same,GI50,MOLT-4 leukemia,2.8 µM
same,TGI,MOLT-4 leukemia,> 100 µM
same,GI50,NCI-H23 lung,2.02 µM
same,TGI,NCI-H23 lung,14.2 µM
same,GI50,NCI-H460 lung,2.61 µM
same,TGI,NCI-H460 lung,> 100 µM
same,GI50,NCI-H522 lung,1.34 µM
same,TGI,NCI-H522 lung,6.03 µM
same,GI50,OVCAR-3 ovarian,1.23 µM
same,TGI,OVCAR-3 ovarian,5.31 µM
same,GI50,OVCAR-4 ovarian,4.29 µM
same,TGI,OVCAR-4 ovarian,> 100 µM
same,GI50,OVCAR-5 ovarian,4.15 µM
same,TGI,OVCAR-5 ovarian,> 100 µM
same,GI50,OVCAR-8 ovarian,2.65 µM
same,TGI,OVCAR-8 ovarian,> 100 µM
same,GI50,PC-3 prostate,4.24 µM
same,TGI,PC-3 prostate,> 100 µM
same,GI50,RPMI-8226 leukemia,2.7 µM
same,TGI,RPMI-8226 leukemia,12.3 µM
same,GI50,RXF 393 renal,2.18 µM
same,TGI,RXF 393 renal,6.85 µM
same,GI50,SF-268 CNS,2.85 µM
same,TGI,SF-268 CNS,> 100 µM
same,GI50,SF-295 CNS,3.25 µM
same,TGI,SF-295 CNS,> 100 µM
same,GI50,SF-539 CNS,0.958 µM
same,TGI,SF-539 CNS,7.12 µM
same,GI50,SK-MEL-2 melanoma,1.53 µM
same,TGI,SK-MEL-2 melanoma,3.77 µM
same,GI50,SK-MEL-28 melanoma,2.93 µM
same,TGI,SK-MEL-28 melanoma,8.72 µM
same,GI50,SK-MEL-5 melanoma,1.77 µM
same,TGI,SK-MEL-5 melanoma,4.62 µM
same,GI50,SK-OV-3 ovarian,1.96 µM
same,TGI,SK-OV-3 ovarian,9.82 µM
same,GI50,SN12C renal,3 µM
same,TGI,SN12C renal,> 100 µM
same,GI50,SNB-19 CNS,0.999 µM
same,TGI,SNB-19 CNS,> 100 µM
same,GI50,SNB-75 CNS,0.0476 µM
same,TGI,SNB-75 CNS,4.84 µM
same,GI50,SR leukemia,2.17 µM
same,TGI,SR leukemia,24.9 µM
same,GI50,SW-620 colon,1.54 µM
same,TGI,SW-620 colon,> 100 µM
same,GI50,T-47D breast,2.01 µM
same,TGI,T-47D breast,> 100 µM
same,GI50,TK-10 renal,3.8 µM
same,TGI,TK-10 renal,> 100 µM
same,GI50,U251 CNS,2.35 µM
same,TGI,U251 CNS,> 100 µM
same,GI50,UACC-257 melanoma,2.81 µM
same,TGI,UACC-257 melanoma,> 100 µM
same,GI50,UO-31 renal,1.87 µM
same,TGI,UO-31 renal,7.21 µM
